Data taken from patent publication US10787448B2, “Indolizino [3,2-C] quinoline-based fluorescent probe” (SEOUL NATIONAL UNIVERSITY R & DB FOUNDATION, priority 2015, dated 2020).
“Also recorded” adds a separate entry of the source. Like-named read-outs stand apart in the source and are kept apart here.

Assays:
[1] = in water; cited from earlier work
[2] = Analysis of optical characteristics (absorption, fluorescence emission, quantum yield) in solvents; assay type: physicochemical
Outline: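 Optical properties of indolizinoquinoline compounds were examined in solvents. A 10 mM DMSO stock was diluted into the solvent, and fluorescence emission spectra were recorded at 20° C. on a JASCO FP-6500 spectrofluorometer. Absorption spectra were taken at room temperature on a Perkin Elmer Lamda 20 UV/VIS spectrometer. Fluorescence quantum yield (Φ) was determined.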

PDEδ [3] = target: T1, PDEδ (Homo sapiens, UniProt O43924); assay: Confirmation of target protein using FRET; assay type: binding; settings: irradiated with 280-nm light
T1 construct: made in house; host or cells: E. coli
Procedure: Therefore, to confirm whether the fluorescent material is able to selectively bind to a specific protein in a cell, fluorescence of the recombinant PDE and/or indolizino[3,2-c]quinoline compound, which is overexpressed in E. coli cells, followed by isolation and purification, was measured by being irradiated with 280-nm light.

cells [4] = assay: Co-staining / co-localization with DAPI, MitoTracker or LysoTracker; assay type: cell-based
HeLa cells = assay: Cell permeability: fluorescence imaging and live cell confocal imaging; assay type: cell-based; settings: HeLa cells
cells [5] = assay: Comparison of fluorescence stability with conventionally developed dyes; assay type: cell-based
PDEδ [6] = target: T1, PDEδ; assay: Titration using fluorescence polarization; assay type: binding; settings: Table 9
[7] = tested on: DNA oligomers (48 bp) tetO sequences; assay: Binding to DNA by fluorescence spectrophotometer; settings: hybridized tetO DNA oligomers added, 1 minute incubation
Procedure: Using a fluorescence spectrophotometer, it was confirmed whether the indolizino[3,2-c]quinoline compound of the present invention binds to DNA. First, DNA oligomers (48 bp) used in the experiment are tetO sequences, and the base sequences thereof are as follows.
The same molarities of oligomers were mixed while being heated at 95° C. for 5 minutes and cooled to room temperature for 2 hours to hybridize, the fluorescence of each of the indolizino[3,2-c]quinoline compounds of the present invention was measured, a corresponding equivalent of DNA oligomer was added to a cuvette, and then incubated while blocking light for 1 minute to measure fluorescence again.

PDEδ [8] = target: T1, PDEδ; assay: Titration using fluorescence polarization; assay type: binding; settings: 0.5 μM compound, PDEδ protein from 0 to 32 μM
Procedure: To confirm whether the indolizino[3,2-c]quinoline compound can bind to a specific intracellular protein, in the presence of 0.5 μM of the indolizino[3,2-c]quinoline compound, titration was performed by increasing the concentration of the PDEδ protein from 0 to 32 μM to measure a polarization degree.

T1 sequence (O43924 whole entry): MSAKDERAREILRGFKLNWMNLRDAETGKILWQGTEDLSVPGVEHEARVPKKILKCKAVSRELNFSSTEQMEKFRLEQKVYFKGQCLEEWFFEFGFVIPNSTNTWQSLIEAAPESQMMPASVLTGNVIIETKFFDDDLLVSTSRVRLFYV

O=c1cc(C(F)(F)F)c2cc3c4c(c2o1)CCCN4CCC3 [Coumarin 153]
quantum yield of the standard (Φ) [1]: 0.12

O=[N+]([O-])c1ccc(-c2nc3ccccc3c3cc4ccccn4c23)cc1 [IQ 2, 6-(4-nitrophenyl)indolizino[3,2-c]quinoline]
fluorescence (intensity, in words) [2]: did not induce fluorescence | fluorescence change / binding to PDEδ by FRET (PDEδ [3]): low fluorescence intensity

Cc1cccn2c1cc1c3ccccc3nc(-c3ccc([N+](=O)[O-])cc3)c12 [IQ 13, 11-methyl-6-(4-nitrophenyl)indolizino[3,2-c]quinoline]
fluorescence (intensity, in words) [2]: did not induce fluorescence | fluorescence change / binding to PDEδ by FRET (PDEδ [3]): no change in fluorescence

CN(C)c1ccc(-c2nc3ccccc3c3cc4ccccn4c23)cc1 [IQ 36, 4-(indolizino[3,2-c]quinolin-6-yl)-N,N-dimethylaniline]
staining pattern compared with conventional dyes (cells [4]): an aspect similar to RNA select for staining RNA; also recorded: stains RNA in a pattern similar to the now currently available Sytoselect | staining pattern compared with conventional dyes (cells [4]; listed as Formula 12): works as a complementary stain with respect to DAPI | intracellular molecule recognized (HeLa cells): recognized intracellular RNA | intracellular organelles in which fluorescence is detected (HeLa cells): intensively distributed in cytoplasmic and nucleolus areas | fluorescence stability compared with commercially available dyes (cells [5]): superior stability, compared to Sytoselect

c1ccc2cc(-c3nc4ccccc4c4cc5ccccn5c34)ccc2c1 [compound 10]
quantum yield (Φ) ([2]; DW, standard Rhodamine 6G): 0.015 | quantum yield (Φ) ([2]; EtOH, standard Coumarin 153): 0.350 | Fluorescence Emission Intensity ([2]; H2O at 2 μM): 39.6 | Peak emission wavelength λmax em(nm) ([2]; H2O at 2 μM, excited at the longest absorption maxima): 532 nm | Relative fluorescence Emission Intensitynorm ([2]; normalized fluorescence intensity, H2O at 2 μM): 0.17 | kmax em(nm) (PDEδ [6]): 530 nm | λabs(nm) (PDEδ [6]): 430 nm | change in fluorescence intensity on addition of DNA oligomer [7]: Increase in fluorescence intensity | Kd (PDEδ [8]): 643 nM
